Data published in ChEMBL document CHEMBL4828771, “Discovery and Development of a Potent, Selective, and Orally Bioavailable CHK1 Inhibitor Candidate: 5-((4-((3-Amino-3-methylbutyl)amino)-5-(trifluoromethyl)pyrimidin-2-yl)amino)picolinonitrile” (J Med Chem, 2021).
Values belong to the compound of their own block, whether it stands above or below them. Calls of active or inactive are those of the source. The rule behind the calls is not given here.

Tests used:
[1] = target: T1, Serine/threonine-protein kinase Chk1 (Homo sapiens) (UniProt O14757); experiment: Inhibition of CHK1 in human HT-29 cells assessed as […] residue at 40 nM incubated for 24 hrs by Western blot analysis; type: cell-based
T1 sequence (whole entry): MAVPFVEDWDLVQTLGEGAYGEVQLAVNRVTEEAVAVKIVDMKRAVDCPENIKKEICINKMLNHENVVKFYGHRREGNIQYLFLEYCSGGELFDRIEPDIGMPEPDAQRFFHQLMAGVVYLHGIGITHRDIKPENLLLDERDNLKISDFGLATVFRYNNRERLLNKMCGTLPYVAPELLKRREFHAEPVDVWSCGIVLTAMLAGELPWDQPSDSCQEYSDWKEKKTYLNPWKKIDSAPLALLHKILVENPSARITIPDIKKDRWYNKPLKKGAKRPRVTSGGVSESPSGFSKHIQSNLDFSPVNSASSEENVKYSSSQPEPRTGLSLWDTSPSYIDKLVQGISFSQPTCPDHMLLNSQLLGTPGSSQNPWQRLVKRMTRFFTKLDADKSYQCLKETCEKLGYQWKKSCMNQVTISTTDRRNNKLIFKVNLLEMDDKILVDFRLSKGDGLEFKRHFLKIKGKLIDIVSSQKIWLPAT

[2] = target: T1, Serine/threonine-protein kinase Chk1 (Homo sapiens); experiment: Inhibition of CHK1 in human HT-29 cells assessed as increase in phosphorylation at S345 residue at 40 nM incubated for 24 hrs by Western blot analysis; type: cell-based
HT-29 [3] = experiment: Induction of gamma-H2A.X in human HT-29 cells at 40 nM incubated for 24 hrs by Western blot analysis; type: functional, cell-based
HT-29 [4] = experiment: Antitumor activity against human HT-29 cells xenografted in mouse assessed as reduction in tumor growth by measuring T/C ratio at 100 mg/kg, iv dosed once a week for 22 days measured twice every week; type: functional; details: time 22 day
Mus musculus [5] = experiment: Induction of S296 phosphorylation in tumor of mouse xenografted with human HT-29 cells at 100 mg/kg, iv dosed once a week for 22 days by Western blot analysis; type: functional, organism-based; details: time 22.0 day
Mus musculus [6] = experiment: Induction of S345 phosphorylation in tumor of mouse xenografted with human HT-29 cells at 100 mg/kg, iv dosed once a week for 22 days by Western blot analysis; type: functional, organism-based; details: time 22.0 day
[7] = MRT(0 to infinity) in ICR mouse at 10 mg/kg, po measured after 0.083 to 48 hrs by LC-MS/MS analysis; type: ADME, organism-based; details: in vivo, time 0.083-48 hrs
[8] = AUCt in ICR mouse at 10 mg/kg, po measured after 0.083 to 48 hrs by LC-MS/MS analysis; type: ADME, organism-based; design: route oral, dose 10 mg/kg, time 0.083-48 hrs; details: in vivo
[9] = AUC(0 to infinity) in ICR mouse at 10 mg/kg, po measured after 0.083 to 48 hrs by LC-MS/MS analysis; type: ADME, organism-based; design: route oral, time lower 0.083 hrs, dose 10 mg/kg, time upper 48 hrs; details: in vivo
[10] = target: T2, Serine/threonine-protein kinase Chk1 (Homo sapiens, UniProt O14757); experiment: Inhibition of CHK1 (unknown origin) incubated for 1 hr in presence of ATP by HTRF assay
T2 sequence (O14757 whole entry): T1 sequence (whole entry)

MV4-11 [11] = experiment: Antiproliferation activity against human MV4-11 cells assessed as reduction in cell viability incubated for 72 hrs by MTS assay; type: functional, cell-based; details: MV4-11, 72 h
Z-138 = experiment: Antiproliferation activity against human Z138 cells assessed as reduction in cell viability incubated for 72 hrs by MTS assay; type: functional, cell-based; details: Z-138, 72 h
hERG (KCNH2) = hERG (KCNH2) (Homo sapiens, UniProt Q12809); experiment: Inhibition of human ERG expressed in HEK293 cells at 10 uM by patch-clamp technique relative to control; type: cell-based; details: HEK293 cells that express hERG
Chain of hERG (KCNH2) (Q12809 whole entry): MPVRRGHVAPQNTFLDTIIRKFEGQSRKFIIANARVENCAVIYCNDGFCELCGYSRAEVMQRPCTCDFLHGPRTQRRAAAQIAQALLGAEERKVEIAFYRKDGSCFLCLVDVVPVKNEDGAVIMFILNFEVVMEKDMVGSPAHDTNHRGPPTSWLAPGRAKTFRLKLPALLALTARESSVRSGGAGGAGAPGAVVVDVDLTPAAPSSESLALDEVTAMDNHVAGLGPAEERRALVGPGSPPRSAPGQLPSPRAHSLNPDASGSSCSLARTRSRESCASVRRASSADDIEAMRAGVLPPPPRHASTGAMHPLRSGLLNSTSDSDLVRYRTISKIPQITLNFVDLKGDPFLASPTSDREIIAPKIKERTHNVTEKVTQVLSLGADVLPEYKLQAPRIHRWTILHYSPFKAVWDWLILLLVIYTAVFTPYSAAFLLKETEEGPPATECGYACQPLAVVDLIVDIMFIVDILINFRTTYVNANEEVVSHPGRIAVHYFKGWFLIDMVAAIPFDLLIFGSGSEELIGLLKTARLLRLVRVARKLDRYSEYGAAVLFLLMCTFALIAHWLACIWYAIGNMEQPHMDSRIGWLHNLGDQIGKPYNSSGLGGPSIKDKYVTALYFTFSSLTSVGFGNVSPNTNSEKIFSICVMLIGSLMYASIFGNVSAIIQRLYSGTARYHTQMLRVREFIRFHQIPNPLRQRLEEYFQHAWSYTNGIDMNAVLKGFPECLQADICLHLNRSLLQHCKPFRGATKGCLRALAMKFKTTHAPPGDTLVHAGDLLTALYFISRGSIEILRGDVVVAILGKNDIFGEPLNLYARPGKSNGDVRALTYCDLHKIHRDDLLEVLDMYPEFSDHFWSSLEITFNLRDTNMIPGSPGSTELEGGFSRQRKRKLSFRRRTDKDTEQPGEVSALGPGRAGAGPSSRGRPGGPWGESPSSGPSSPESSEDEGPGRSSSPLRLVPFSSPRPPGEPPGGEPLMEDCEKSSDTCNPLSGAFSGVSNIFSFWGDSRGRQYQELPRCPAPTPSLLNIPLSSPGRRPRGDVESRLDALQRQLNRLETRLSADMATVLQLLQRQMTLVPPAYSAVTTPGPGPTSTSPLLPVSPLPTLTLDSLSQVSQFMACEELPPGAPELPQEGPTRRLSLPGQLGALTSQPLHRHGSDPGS

[12] = Half life in ICR mouse at 10 mg/kg, po measured after 0.083 to 48 hrs by LC-MS/MS analysis; type: ADME, organism-based; details: in vivo, time 0.083-48 hrs
[13] = Tmax in ICR mouse at 10 mg/kg, po measured after 0.083 to 48 hrs by LC-MS/MS analysis; type: ADME, organism-based; details: in vivo, time 0.083-48 hrs
[14] = Cmax in ICR mouse at 10 mg/kg, po measured after 0.083 to 48 hrs by LC-MS/MS analysis; type: ADME, organism-based; design: route oral, time upper 48 hrs, dose 10 mg/kg, time lower 0.083 hrs; details: in vivo
[15] = Half life in ICR mouse at 20 mg/kg, po measured after 0.083 to 48 hrs by LC-MS/MS analysis; type: ADME, organism-based; details: in vivo, time 0.083-48 hrs
[16] = Tmax in ICR mouse at 20 mg/kg, po measured after 0.083 to 48 hrs by LC-MS/MS analysis; type: ADME, organism-based; details: in vivo, time 0.083-48 hrs
[17] = Cmax in ICR mouse at 20 mg/kg, po measured after 0.083 to 48 hrs by LC-MS/MS analysis; type: ADME, organism-based; design: route oral, time upper 48 hrs, time lower 0.083 hrs, dose 20 mg/kg; details: in vivo
[18] = AUCt in ICR mouse at 20 mg/kg, po measured after 0.083 to 48 hrs by LC-MS/MS analysis; type: ADME, organism-based; design: route oral, dose 20 mg/kg, time 0.083-48 hrs; details: in vivo
[19] = AUC (0 to infinity) in ICR mouse at 20 mg/kg, po measured after 0.083 to 48 hrs by LC-MS/MS analysis; type: ADME, organism-based; design: route oral, time upper 48 hrs, time lower 0.083 hrs, dose 20 mg/kg; details: in vivo
[20] = MRT (0 to infinity) in ICR mouse at 20 mg/kg, po measured after 0.083 to 48 hrs by LC-MS/MS analysis; type: ADME, organism-based; details: in vivo, time 0.083-48 hrs
MV4-11 [21] = experiment: Antitumor activity against human MV4-11 cells xenografted in mouse assessed as inhibition of tumor growth by measuring T/C ratio at 30 mg/kg, po dosed 5 days/week for 3 weeks measured twice every week; type: functional

Activity [1]: Active | Activity [2]: Active
Compound: Nc1ccn([C@@H]2O[C@H](CO)[C@@H](O)C2(F)F)c(=O)n1 [GEMCITABINE]
Activity (HT-29 [3]): Active | T/C (HT-29 [4]): 57.7% | Activity (Mus musculus [5]): Active | Activity (Mus musculus [6]): Active

MRT inf [7]: 3.37 h | AUC(0-t) [8]: 1430 ng·h/mL | AUC(0-inf) [9]: 1440 ng·h/mL | IC50 [10]: 32.9 nM | IC50 (MV4-11 [11]): 50 nM | half-life [12]: 2.88 h | Tmax [13]: 1.42 h | Cmax [14]: 371 ng/mL
Compound: N#Cc1ccc(Nc2ncc(C(F)(F)F)c(N[C@H]3CC[C@H](N)CC3)n2)cn1
IC50 (Z-138): 680 nM | inhibition at 10 µM (hERG (KCNH2)): 47.9%

IC50 [10]: 3.3 nM | IC50 (MV4-11 [11]): 60 nM | half-life [15]: 1.4 h | Tmax [16]: 0.33 h | Cmax [17]: 1330 ng/mL | AUC(0-t) [18]: 1120 ng·h/mL | AUC(0-inf) [19]: 1150 ng·h/mL | MRT inf [20]: 1.17 h
Compound: CNc1nc(Nc2cnc(C#N)c(N[C@@H]3CCNC3)c2)ncc1C(F)(F)F
IC50 (Z-138): 170 nM | inhibition at 10 µM (hERG (KCNH2)): 17.9% | T/C (MV4-11 [21]): 65.78%
